Experimental data reported in US20220033405A1, “PHARMACEUTICAL COMPOSITION FOR PREVENTING OR TREATING CANCER CONTAINING PLK1 INHIBITOR AS ACTIVE INGREDIENT” (NATIONAL CANCER CENTER, priority 2018, published 2022).

Columns and labels:
Type in all cases: cell-based
[1] = test system: MDA-MB-468 cells; assay: Cancer cell growth inhibition (DAPI nuclei count), breast cancer line; details: treated 1 and 3 days after attachment
Protocol: For this purpose, experiments were performed using liver cancer, breast cancer, hematologic cancer, cervical cancer, and prostate cancer cell lines, a murine liver cancer cell line HEPA 1-6 and a breast cancer cell line MDA-MB-468 were cultured in a DMEM medium supplemented with 10% fetal bovine serum (FBS) and 1% penicillin/streptomycin, the other cell lines were cultured in a RPMI1640 medium supplemented with the same additives, and the cell lines were used in the experiment.
To examine the ability of the compound to inhibit the growth of the breast cancer cell line, the compounds was treated at each indicated μM concentration 1 and 3 days after cell attachment, and the control was treated with a 0.1% solvent (DMSO). […] After the cells were additionally rinsed once with PBS, cells stained with DAPI were photographed by Cytation 3, and the resulting images were analyzed with Gen5 software (Biotek, USA). Meanwhile, cells that grew in a floating manner without being attached to the culture plate were treated with a 4% paraformaldehyde solution, reacted at room temperature for 10 minutes to fix the cells, and then photographed in a bright field by Cytation3, and the resulting images were analyzed by Gen5 software (Biotek, USA). […]

[2] = test system: SNU449 human liver cancer cells; assay: Reactivity of M2 variants in SNU449
Protocol: (§1) To examine the ability of the compound to inhibit the growth of the breast cancer cell line, the compounds was treated at each indicated μM concentration 1 and 3 days after cell attachment, and the control was treated with a 0.1% solvent (DMSO). After another two days, the cell lines that were attached to the culture plate and grew were rinsed with 1×PBS and treated with 4% paraformaldehyde at room temperature for 10 minutes to fix the cells. Then, after cells were rinsed twice with PBS, the fixed cells were treated with a 0.5% Triton X-100 solution and reacted at room temperature for 15 minutes, rinsed another three times with PBS, and then treated with a DAPI reagent at 0.5 μg/ml, and reacted at 37° C. for 10 minutes to stain the cell nuclei. After the cells were additionally rinsed once with PBS, cells stained with DAPI were photographed by Cytation 3, and the resulting images were analyzed with Gen5 software (Biotek, USA). Meanwhile, cells that grew in a floating manner without being attached to the culture plate were treated with a 4% paraformaldehyde solution, reacted at room temperature for 10 minutes to fix the cells, and then photographed in a bright field by Cytation3, and the resulting images were analyzed by Gen5 software (Biotek, USA).
(§2) To analyze the ability to inhibit the growth of liver cancer cell lines, 6.6×10^3 HepG2 cells per well, 1×10^3 cells of each of Hep3B, SNU-475, and SNU-449 per well, and 2×10^3 SNU-387 cells per well were aliquoted in a 96-well plate, cultured in the same manner as described above, treated with Compound 2 (M2), Compound 3 (M4), Compound 4 (M21), Compound 5 (M23), and Compound 6 (M25), and then the ability to inhibit the growth of cells was analyzed.

[3] = test system: JIMT1 human breast cancer cells; assay: Cancer cell growth inhibition, M2 variants in JIMT1
Protocol: as §1

[4] = test system: HepG2 human liver cancer cells; assay: Reactivity of M2 variants in HepG2
Protocol: as §1, §2

O=c1nc2[nH]c3cc(Cl)ccc3nc-2c(=O)[nH]1 [Compound 3, 8-chloro-1H,2H,3H,4H-benzo[g]pteridine-2,4-dione]
number of cells [1]: the number of cells was remarkably reduced in proportion to the treatment concentration

Cc1cccc(OCCn2c3nc(=O)[nH]c(=O)c-3nc3cc(C(F)(F)F)ccc32)c1 [Compound 11, 10-[2-(3-methylphenoxy)ethyl]-7-(trifluoromethyl)-2H,3H,4H,10H-benzo[g]pteridine-2,4-dione]
number of cancer cells [2]: a relatively remarkable cancer cell reduction effect did not appear

Cc1cc2nc3c(=O)[nH]c(=O)nc-3n(C)c2cc1C=O [Compound 8, 7,10-dimethyl-2,4-dioxo-2H,3H,4H,10H-benzo[g]pteridine-8-carbaldehyde]
number of cancer cells [3]: remarkably reduced the number of cancer cells in a dose-dependent manner
number of cancer cells [2]: the number of cancer cells was remarkably reduced in a dose-dependent manner

Cc1cc2nc3c(=O)[nH]c(=O)nc-3n(CCC#N)c2cc1C [Compound 10, 3-{7,8-dimethyl-2,4-dioxo-2H,3H,4H,10H-benzo[g]pteridin-10-yl}propanenitrile]
number of cancer cells [2]: a relatively remarkable cancer cell reduction effect did not appear

Cc1cc2nc3c(=O)[nH]c(=O)nc-3n(C[C@H](O)[C@H](O)[C@H](O)CO)c2cc1C [Compound 12, 7,8-Dimethyl-10-[(2S,3S,4R)-2,3,4,5-tetrahydroxypentyl]benzo[g]pteridine-2,4-dione]
areas of liver cancer cells [4]: relatively low reactivity appeared
number of cancer cells [2]: a relatively remarkable cancer cell reduction effect did not appear

Cc1cc2nc3c(=O)[nH]c(=O)nc-3n(C)c2cc1C [Compound 7, 7,8,10-trimethyl-2H,3H,4H,10H-benzo[g]pteridine-2,4-dione]
number of cancer cells [3]: remarkably reduced the number of cancer cells in a dose-dependent manner
areas of liver cancer cells [4]: remarkably reduced in a dose-dependent manner
number of cancer cells [2]: the number of cancer cells was remarkably reduced in a dose-dependent manner
